From ChEMBL document CHEMBL4725227, “Dual-Target Inhibitors Based on HDACs: Novel Antitumor Agents for Cancer Therapy” (J Med Chem, 2020)

How the values were obtained:
THP-1 = test: Growth inhibition of human THP-1 cells; type: functional
Histone deacetylase = test: Inhibition of HDAC (unknown origin); type: protein assay, Homo sapiens
Histone deacetylase 1 [1] = target: T1, Histone deacetylase 1 (Homo sapiens, UniProt Q13547); test: Inhibition of HDAC1 (unknown origin)
[2] = target: T2, Bromodomain-containing protein 4 (Homo sapiens, UniProt O60885); test: Inhibition of BRD4 (unknown origin)
MV4-11 = test: Antiproliferative activity against human MV4-11 cells by MTT assay; type: functional, cell-based
OCI-AML-3 = test: Antiproliferative activity against human OCI-AML-3 cells by MTT assay; type: functional, cell-based
[3] = target: T2, Bromodomain-containing protein 4; test: Inhibition of BRD4 BD2 domain (unknown origin)
OCI-AML2 = test: Antiproliferative activity against human OCI-AML2 cells by MTT assay; type: functional, cell-based
[4] = target: T3, Epidermal growth factor receptor (Homo sapiens, UniProt P00533); test: Inhibition of GST-tagged EGFR (unknown origin) at 10 ug/ml using biotinylated peptide as substrate in presence of ATP relative to control; details: dose 10.0 µg/ml
Histone deacetylase 1 [5] = target: T1, Histone deacetylase 1; test: Inhibition of recombinant human HDAC1 expressed in baculovirus expression system using Ac-Lys-Tyr-Lys (epsilon-acetyl)-AMC as substrate after 24 hrs by fluorescence assay
Histone deacetylase 3 = Histone deacetylase 3 (Homo sapiens, UniProt O15379); test: Inhibition of recombinant human HDAC3 expressed in baculovirus expression system using Ac-Lys-Tyr-Lys (epsilon-acetyl)-AMC as substrate after 24 hrs by fluorescence assay
[6] = target: Protein deacetylase HDAC6 (Homo sapiens, UniProt Q9UBN7); test: Inhibition of recombinant human HDAC6 expressed in baculovirus expression system using Ac-Lys-Tyr-Lys (epsilon-acetyl)-AMC as substrate after 24 hrs by fluorescence assay
[7] = target: Receptor tyrosine-protein kinase erbB-2 (Homo sapiens) (UniProt P04626); test: Inhibition of HER2 (unknown origin) at 10 ug/ml using biotinylated peptide as substrate in presence of ATP relative to control; details: dose 10.0 µg/ml
MCF7 [8] = test: Cytotoxicity against human MCF7 cells assessed as reduction in cell viability by MTT assay; type: functional, cell-based
[9] = target: Vascular endothelial growth factor receptor 2 (Homo sapiens, UniProt P35968); test: Inhibition of VGFR2 (unknown origin)
[10] = target: T3, Epidermal growth factor receptor; test: Inhibition of EGFR (unknown origin)
MCF7 [11] = test: Cytotoxicity against human MCF7 cells assessed as reduction in cell viability; type: functional, cell-based
DU-145 = test: Cytotoxicity against human DU-145 cells assessed as reduction in cell viability; type: functional, cell-based

T1 sequence (Q13547 whole entry): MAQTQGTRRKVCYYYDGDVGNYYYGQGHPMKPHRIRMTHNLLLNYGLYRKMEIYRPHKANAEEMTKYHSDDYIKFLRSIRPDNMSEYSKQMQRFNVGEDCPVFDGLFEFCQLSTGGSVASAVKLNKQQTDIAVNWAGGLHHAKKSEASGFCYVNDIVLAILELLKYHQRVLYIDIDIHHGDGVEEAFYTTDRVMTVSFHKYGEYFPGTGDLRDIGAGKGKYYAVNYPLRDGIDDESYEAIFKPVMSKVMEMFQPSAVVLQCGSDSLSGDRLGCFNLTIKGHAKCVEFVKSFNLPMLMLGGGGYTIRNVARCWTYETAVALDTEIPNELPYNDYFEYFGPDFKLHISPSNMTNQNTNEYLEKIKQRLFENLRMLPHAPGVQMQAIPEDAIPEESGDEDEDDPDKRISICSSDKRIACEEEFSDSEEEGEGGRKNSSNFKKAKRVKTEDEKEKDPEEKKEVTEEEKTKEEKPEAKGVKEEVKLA
T3 sequence (P00533 whole entry): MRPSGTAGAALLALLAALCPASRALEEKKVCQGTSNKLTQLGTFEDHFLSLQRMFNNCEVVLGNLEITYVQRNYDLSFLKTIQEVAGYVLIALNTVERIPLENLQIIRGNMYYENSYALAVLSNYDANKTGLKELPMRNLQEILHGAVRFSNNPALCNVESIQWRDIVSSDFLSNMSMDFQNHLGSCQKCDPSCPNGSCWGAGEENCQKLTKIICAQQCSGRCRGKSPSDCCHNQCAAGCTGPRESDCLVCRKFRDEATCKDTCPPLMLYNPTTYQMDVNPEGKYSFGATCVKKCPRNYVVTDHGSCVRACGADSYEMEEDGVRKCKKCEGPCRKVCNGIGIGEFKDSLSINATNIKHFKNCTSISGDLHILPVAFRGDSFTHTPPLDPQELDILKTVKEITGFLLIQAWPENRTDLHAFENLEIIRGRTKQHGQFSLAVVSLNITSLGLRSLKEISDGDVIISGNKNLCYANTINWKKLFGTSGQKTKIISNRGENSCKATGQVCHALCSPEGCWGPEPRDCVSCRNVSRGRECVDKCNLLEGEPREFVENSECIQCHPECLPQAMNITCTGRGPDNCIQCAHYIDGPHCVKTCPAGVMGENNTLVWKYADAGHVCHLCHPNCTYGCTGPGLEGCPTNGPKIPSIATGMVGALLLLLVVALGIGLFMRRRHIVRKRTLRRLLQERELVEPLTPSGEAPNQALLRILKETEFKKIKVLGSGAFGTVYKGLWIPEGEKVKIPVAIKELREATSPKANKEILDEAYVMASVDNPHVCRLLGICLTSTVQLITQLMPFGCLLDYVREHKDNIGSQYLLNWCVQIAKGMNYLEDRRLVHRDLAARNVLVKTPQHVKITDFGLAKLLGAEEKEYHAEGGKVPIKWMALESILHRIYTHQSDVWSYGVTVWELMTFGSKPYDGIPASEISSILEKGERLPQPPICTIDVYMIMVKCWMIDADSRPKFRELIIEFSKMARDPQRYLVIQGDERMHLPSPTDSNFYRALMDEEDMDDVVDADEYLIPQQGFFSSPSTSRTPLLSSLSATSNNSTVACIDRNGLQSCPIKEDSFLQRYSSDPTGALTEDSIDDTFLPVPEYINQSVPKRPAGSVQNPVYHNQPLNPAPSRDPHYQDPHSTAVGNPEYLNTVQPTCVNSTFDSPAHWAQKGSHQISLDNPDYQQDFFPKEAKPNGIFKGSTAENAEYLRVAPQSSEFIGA
Chain of Vascular endothelial growth factor receptor 2 (P35968 whole entry): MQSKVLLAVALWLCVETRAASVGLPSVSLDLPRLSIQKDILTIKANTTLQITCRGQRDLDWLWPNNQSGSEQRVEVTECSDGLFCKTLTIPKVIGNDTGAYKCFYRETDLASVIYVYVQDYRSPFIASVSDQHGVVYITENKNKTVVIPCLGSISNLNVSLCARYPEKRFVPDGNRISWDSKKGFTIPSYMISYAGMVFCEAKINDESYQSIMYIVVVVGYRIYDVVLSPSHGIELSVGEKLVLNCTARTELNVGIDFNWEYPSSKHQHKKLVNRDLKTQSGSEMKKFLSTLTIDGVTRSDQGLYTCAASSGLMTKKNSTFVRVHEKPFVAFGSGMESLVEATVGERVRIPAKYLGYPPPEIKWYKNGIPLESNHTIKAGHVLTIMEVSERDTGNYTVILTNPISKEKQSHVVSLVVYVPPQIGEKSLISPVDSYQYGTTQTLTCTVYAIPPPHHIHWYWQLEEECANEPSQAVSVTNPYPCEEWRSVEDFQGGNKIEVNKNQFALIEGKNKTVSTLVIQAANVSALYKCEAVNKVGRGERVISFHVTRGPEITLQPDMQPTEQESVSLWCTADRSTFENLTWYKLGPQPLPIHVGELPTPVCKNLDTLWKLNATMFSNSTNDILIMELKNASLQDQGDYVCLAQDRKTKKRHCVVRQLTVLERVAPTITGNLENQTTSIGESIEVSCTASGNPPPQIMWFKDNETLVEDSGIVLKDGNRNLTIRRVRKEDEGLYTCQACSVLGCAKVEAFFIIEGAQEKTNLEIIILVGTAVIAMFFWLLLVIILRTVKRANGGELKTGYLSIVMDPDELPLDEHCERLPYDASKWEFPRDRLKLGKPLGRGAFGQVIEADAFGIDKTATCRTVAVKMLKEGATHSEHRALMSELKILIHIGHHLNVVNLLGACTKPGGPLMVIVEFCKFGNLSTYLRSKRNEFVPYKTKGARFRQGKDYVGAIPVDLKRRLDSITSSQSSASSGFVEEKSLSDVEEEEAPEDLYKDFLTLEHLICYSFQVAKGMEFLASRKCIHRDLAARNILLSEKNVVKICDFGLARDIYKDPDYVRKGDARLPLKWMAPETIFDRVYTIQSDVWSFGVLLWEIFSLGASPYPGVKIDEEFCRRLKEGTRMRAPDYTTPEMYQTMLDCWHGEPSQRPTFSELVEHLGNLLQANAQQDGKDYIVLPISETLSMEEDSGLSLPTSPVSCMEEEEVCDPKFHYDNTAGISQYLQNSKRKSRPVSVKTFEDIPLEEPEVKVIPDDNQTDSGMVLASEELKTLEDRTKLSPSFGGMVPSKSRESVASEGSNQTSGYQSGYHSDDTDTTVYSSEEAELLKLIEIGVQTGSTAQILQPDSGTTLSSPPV
Chain of Receptor tyrosine-protein kinase erbB-2 (Homo sapiens) (P04626 whole entry): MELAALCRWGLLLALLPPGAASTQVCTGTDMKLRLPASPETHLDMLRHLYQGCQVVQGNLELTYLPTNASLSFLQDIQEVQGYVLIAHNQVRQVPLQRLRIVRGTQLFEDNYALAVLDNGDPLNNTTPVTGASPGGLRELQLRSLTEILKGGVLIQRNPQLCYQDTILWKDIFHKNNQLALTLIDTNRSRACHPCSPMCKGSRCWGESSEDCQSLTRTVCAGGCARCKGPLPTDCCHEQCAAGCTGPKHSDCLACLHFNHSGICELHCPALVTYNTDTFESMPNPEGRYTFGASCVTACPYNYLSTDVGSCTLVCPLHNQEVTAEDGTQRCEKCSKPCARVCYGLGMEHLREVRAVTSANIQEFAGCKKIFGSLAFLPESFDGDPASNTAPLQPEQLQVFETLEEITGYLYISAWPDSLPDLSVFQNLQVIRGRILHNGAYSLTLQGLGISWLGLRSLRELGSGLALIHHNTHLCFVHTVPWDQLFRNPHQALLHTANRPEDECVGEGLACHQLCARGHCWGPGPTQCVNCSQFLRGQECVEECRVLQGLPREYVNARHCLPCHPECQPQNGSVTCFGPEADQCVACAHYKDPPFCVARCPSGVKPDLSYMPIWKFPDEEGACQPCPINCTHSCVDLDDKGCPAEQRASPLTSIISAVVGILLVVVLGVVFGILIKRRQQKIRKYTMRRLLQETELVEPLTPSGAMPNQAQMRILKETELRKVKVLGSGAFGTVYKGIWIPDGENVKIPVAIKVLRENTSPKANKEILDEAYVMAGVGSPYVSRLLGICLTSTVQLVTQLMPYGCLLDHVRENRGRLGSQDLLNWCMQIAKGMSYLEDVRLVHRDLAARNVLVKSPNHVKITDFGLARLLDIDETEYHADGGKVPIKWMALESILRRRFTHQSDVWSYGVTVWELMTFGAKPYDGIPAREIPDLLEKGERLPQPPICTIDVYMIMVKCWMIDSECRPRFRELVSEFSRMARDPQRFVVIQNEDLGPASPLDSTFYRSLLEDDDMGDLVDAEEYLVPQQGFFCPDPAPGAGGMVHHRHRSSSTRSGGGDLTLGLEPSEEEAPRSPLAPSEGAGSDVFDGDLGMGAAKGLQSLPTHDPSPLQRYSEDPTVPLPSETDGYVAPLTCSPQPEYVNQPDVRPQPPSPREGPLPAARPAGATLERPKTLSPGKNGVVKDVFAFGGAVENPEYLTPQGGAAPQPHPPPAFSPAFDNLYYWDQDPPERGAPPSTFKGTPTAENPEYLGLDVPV
Chain of Histone deacetylase 3 (O15379 whole entry): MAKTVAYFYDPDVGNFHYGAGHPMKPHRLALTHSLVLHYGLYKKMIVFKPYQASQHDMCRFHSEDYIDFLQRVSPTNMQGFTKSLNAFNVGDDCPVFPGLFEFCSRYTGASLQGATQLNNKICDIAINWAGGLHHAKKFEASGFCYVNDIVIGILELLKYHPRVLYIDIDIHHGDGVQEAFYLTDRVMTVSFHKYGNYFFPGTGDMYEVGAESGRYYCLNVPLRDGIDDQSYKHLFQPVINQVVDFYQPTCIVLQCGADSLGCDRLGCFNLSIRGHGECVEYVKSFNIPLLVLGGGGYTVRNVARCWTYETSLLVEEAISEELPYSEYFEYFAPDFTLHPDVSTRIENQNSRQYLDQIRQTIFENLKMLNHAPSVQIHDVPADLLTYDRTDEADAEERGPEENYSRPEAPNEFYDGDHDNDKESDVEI

Q: With `COc1cc(OC)c2c(=O)[nH]c(-c3ccc(OCCCCCC(=O)NO)cc3)nc2c1` as the compound, how does the GI50 (THP-1) read?
A: 15500 nM

Q: What about the IC50 (Histone deacetylase) of the same compound?
A: 291 nM

Q: With `Cn1cc(-c2ccnc(Nc3ccc(C(=O)NCCCCC(=O)NO)cc3)n2)c2ccccc21` as the compound, how does the IC50 (Histone deacetylase) read?
A: < 1000 nM

Q: How did the GI50 (THP-1) turn out when `Cc1noc(C)c1-c1ccc2c(c1)c(Cc1ccc(F)cc1)cn2CCCCCC(=O)NO` was run?
A: 15500 nM

Q: And the IC50 (Histone deacetylase)?
A: 291 nM

Q: Which results are given for `COc1cc(OC)c2c(=O)[nH]c(-c3cc(C)c(O)c(C)c3)nc2c1`?
A: GI50 (THP-1): 15500 nM; IC50 (Histone deacetylase): 291000 nM

Q: How did the IC50 (Histone deacetylase 1 [1]) turn out when `CC(=O)N1c2ccc(-c3ccc(NC(=O)CCCCCCC(=O)NO)cc3)cc2[C@H](NC(=O)OC(C)C)C[C@@H]1C` was run?
A: 150 nM

Q: `O=C(CCCCCC(=O)Nc1ccc(O)c(C(=O)Nc2ccc(OCc3cccc(F)c3)c(Cl)c2)c1)NO` was tested. Which IC50 (Histone deacetylase) did it give?
A: < 1000 nM

Q: How did the GI50 (THP-1) turn out when `Cc1cccc(Cc2cn(CCCCCC(=O)NO)c3ccc(-c4c(C)noc4C)cc23)c1` was run?
A: 15500 nM

Q: And the IC50 (Histone deacetylase)?
A: 291 nM

Q: For `Cc1noc(C)c1-c1ccc2c(c1)c(Cc1ccc(F)cc1)cn2CCCCCCC(=O)NO`, which IC50 (Histone deacetylase 1 [1]) is on record?
A: 150 nM

Q: And the IC50 [2]?
A: 670 nM

Q: Which IC50 (Histone deacetylase) does the source give for `O=C(CCCCCC(=O)Nc1ccc(O)c(C(=O)Nc2cccc(F)c2)c1)NO` here?
A: < 1000 nM

Q: How did the GI50 (THP-1) turn out when `Cc1noc(C)c1-c1ccc2c(c1)c(Cc1cccc(C(F)(F)F)c1)cn2CCCCCC(=O)NO` was run?
A: 15500 nM

Q: And the IC50 (Histone deacetylase)?
A: 291 nM

Q: For `COc1cc(C(=O)NCCC(=O)NO)ccc1Nc1nccc(-c2cn(C)c3ccccc23)n1`, which IC50 (Histone deacetylase) is on record?
A: < 1000 nM

Q: Which results are given for `Cc1noc(C)c1-c1ccc2c(c1)c(CCc1ccccc1)cn2CCCCCC(=O)NO`?
A: GI50 (THP-1): 15500 nM; IC50 (Histone deacetylase): 291 nM

Q: `O=C(CCCCCC(=O)Nc1ccc(O)c(C(=O)Nc2ccc(F)c(F)c2)c1)NO` was tested. Which IC50 (Histone deacetylase) did it give?
A: < 1000 nM

Q: How did the GI50 (THP-1) turn out when `Cc1noc(C)c1-c1ccc2c(c1)c(Cc1ccccc1)cn2CCCCCC(=O)NO` was run?
A: 15500 nM

Q: What about the IC50 (Histone deacetylase) of the same compound?
A: 291 nM

Q: Which results are given for `COc1cc(OC)c2c(=O)[nH]c(-c3cc(C)c(OCCCCCC(=O)NO)c(C)c3)nc2c1`?
A: GI50 (THP-1): 15500 nM; IC50 (Histone deacetylase): 291 nM

Q: For `O=C(CCCCCC(=O)Nc1ccc(O)c(C(=O)Nc2ccc(F)c(Cl)c2)c1)NO`, which IC50 (Histone deacetylase) is on record?
A: < 1000 nM

Q: `COc1cc(OC)c2c(=O)[nH]c(-c3ccc(OCCCC(=O)NO)cc3)nc2c1` was tested. Which IC50 (MV4-11) did it give?
A: 1670 nM

Q: What about the IC50 (OCI-AML-3) of the same compound?
A: 1090 nM

Q: What about the GI50 (THP-1) of the same compound?
A: 15500 nM

Q: What about the IC50 (Histone deacetylase) of the same compound?
A: 32 nM

Q: And the IC50 [3]?
A: 225 nM

Q: What about the IC50 (OCI-AML2) of the same compound?
A: 1520 nM

Q: Which results are given for `COCCOc1cc2ncnc(Nc3ccc(/C=C/C(=O)NO)cc3)c2cc1OCCOC`?
A: inhibition [4]: 70%; IC50 (Histone deacetylase 1 [5]): 160 nM; IC50 (Histone deacetylase 3): 180 nM; IC50 [6]: 560 nM; inhibition [7]: 84%

Q: With `O=C(CCCCCC(=O)Nc1ccc(O)c(C(=O)Nc2ccc(Cl)c(C(F)(F)F)c2)c1)NO` as the compound, how does the IC50 (Histone deacetylase) read?
A: < 1000 nM

Q: What does the source list for `COc1cc(OC)c2c(=O)[nH]c(-c3ccc(OCc4cc(C)c(/C=C/C(=O)NO)c(C)c4)cc3)nc2c1`?
A: GI50 (THP-1): 15500 nM; IC50 (Histone deacetylase): 291 nM

Q: How did the IC50 (Histone deacetylase 1 [1]) turn out when `Cc1noc(C)c1-c1cc(NC(=O)CCCCCC(=O)NO)cc(C(=O)c2ccccc2)c1` was run?
A: 150 nM

Q: What about the IC50 [2] of the same compound?
A: 670 nM

Q: Which results are given for `COc1cc2ncnc(Nc3ccc(Br)cc3)c2cc1OCCCCCC(=O)NO`?
A: IC50 (MCF7 [8]): 850 nM; IC50 [9]: 74 nM; IC50 (Histone deacetylase): 2.2 nM

Q: `O=C(CCCCCC(=O)Nc1ccc(O)c(C(=O)Nc2ccc(Cl)c(Cl)c2)c1)NO` was tested. Which IC50 (Histone deacetylase) did it give?
A: < 1000 nM

Q: For `O=C(CCCCCC(=O)Nc1ccc(O)c(C(=O)Nc2cccc(C(F)(F)F)c2)c1)NO`, which IC50 (Histone deacetylase) is on record?
A: < 1000 nM

Q: With `O=C(CCCCCCC(=O)Nc1ccccc1)NO` [VORINOSTAT] as the compound, how does the IC50 [10] read?
A: 900 nM

Q: Which IC50 (Histone deacetylase) does the source give for `COc1cc(C(=O)NCCCC(=O)NO)ccc1Nc1nccc(-c2cn(C)c3ccccc23)n1` here?
A: < 1000 nM

Q: Which results are given for `Cc1noc(C)c1-c1ccc2c(c1)c(CCc1ccccc1)cn2CCCCCCC(=O)NO`?
A: GI50 (THP-1): 15500 nM; IC50 (Histone deacetylase): 291 nM

Q: How did the IC50 (Histone deacetylase) turn out when `C#Cc1cccc(NC(=O)c2cc(NC(=O)CCCCCC(=O)NO)ccc2O)c1` was run?
A: < 1000 nM

Q: `Cc1ccc(Cc2cn(CCCCCCC(=O)NO)c3ccc(-c4c(C)noc4C)cc23)cc1` was tested. Which GI50 (THP-1) did it give?
A: 15500 nM

Q: And the IC50 (Histone deacetylase)?
A: 291 nM

Q: `Cn1cc(-c2ccnc(Nc3ccc(C(=O)NO)cc3)n2)c2ccccc21` was tested. Which IC50 (Histone deacetylase) did it give?
A: < 1000 nM

Q: `COC(c1c(F)cccc1Cl)c1c[nH]c2ncc(-c3c(C)noc3C)cc12` (centres undefined) was tested. Which GI50 (THP-1) did it give?
A: 15500 nM

Q: What about the IC50 (Histone deacetylase) of the same compound?
A: 291 nM

Q: How did the IC50 (MCF7 [11]) turn out when `Cc1ccccc1OS(=O)(=O)C1CC2OC1C(c1ccc(NC(=O)CCCCCCC(=O)NO)cc1)=C2c1ccc(O)cc1` (centres undefined) was run?
A: 7900 nM

Q: What about the IC50 (Histone deacetylase 1 [1]) of the same compound?
A: 22 nM

Q: What about the IC50 (DU-145) of the same compound?
A: > 100000 nM
